Test results published in US12421230B2, “Tricyclic heteroaryl compounds useful as IRAK4 inhibitors” (BRISTOL-MYERS SQUIBB COMPANY, priority 2020, dated 2025).

Tests used:
IRAK4 = target: T1, IRAK4 (Homo sapiens, UniProt Q9NWZ3); assay: IRAK4 Inhibition Assay; type: biochemical; conditions: ATP 500 μM; fluoresceinated peptide 1.5 μM; IRAK4 0.6 nM; 60 min room temperature; Caliper LABCHIP
T1 sequence (Q9NWZ3 1-460): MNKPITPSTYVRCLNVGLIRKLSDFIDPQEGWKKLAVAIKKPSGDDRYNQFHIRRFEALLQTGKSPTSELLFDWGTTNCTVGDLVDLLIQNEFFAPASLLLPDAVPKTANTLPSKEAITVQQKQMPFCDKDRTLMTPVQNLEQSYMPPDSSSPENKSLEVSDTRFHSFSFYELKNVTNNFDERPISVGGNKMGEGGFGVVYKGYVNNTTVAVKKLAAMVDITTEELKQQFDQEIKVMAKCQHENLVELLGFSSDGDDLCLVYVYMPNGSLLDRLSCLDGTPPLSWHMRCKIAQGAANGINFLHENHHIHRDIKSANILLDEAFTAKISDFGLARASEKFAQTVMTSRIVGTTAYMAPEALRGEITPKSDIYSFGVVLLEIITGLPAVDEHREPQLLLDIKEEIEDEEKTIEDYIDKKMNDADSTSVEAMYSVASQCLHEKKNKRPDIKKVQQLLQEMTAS
Description: The assays were performed in U-bottom 384-well plates. The final assay volume was 30 μL prepared from 15 μL additions of enzyme and substrates (fluoresceinated peptide and ATP) and test compounds in assay buffer (20 mM HEPES pH 7.2, 10 mM MgCl2, 0.015% Brij 35 and 4 mM DTT). The reaction was initiated by the combination of IRAK4 with substrates and test compounds. The reaction mixture was incubated at room temperature for 60 min. and terminated by adding 45 μL of 35 mM EDTA to each sample. The reaction mixture was analyzed on the Caliper LABCHIP® 3000 (Caliper, Hopkinton, MA) by electrophoretic separation of the fluorescent substrate and phosphorylated product. Inhibition data were calculated by comparison to no enzyme control reactions for 100% inhibition and vehicle-only reactions for 0% inhibition. The final concentrations of reagents in the assays are ATP, 500 μM; FL-IPTSPITTTYFFFKKK peptide 1.5 μM; IRAK4, 0.6 nM; and DMSO, 1.6%.

Human whole blood = assay: IRAK4 Whole Blood Assay; type: cell-based; conditions: stimulated with TLR2 agonist lipoteichoic acid 10 μg/mL for 5 hours, IL-6 levels
Description: Human whole blood containing the anti-coagulant ACD-A was plated in 384-well plate (25 μL/well) and incubated with compounds for 60 minutes at 37° C. in a 5% CO2 incubator. The blood was stimulated with a TLR2 agonist, 10 μg/mL final concentration of lipoteichoic acid (Invivogen, San Diego, CA) in 25 μL RPMI (Gibco) for 5 hours in a 5% CO2 incubator. At the end of the incubation, plates were centrifuged at 2300 rpm for 5 minutes. Supernatants were harvested and analyzed for IL-6 levels by Flow Cytometry beads assay (BD Biosciences, San Jose, CA).

SMILES | IC50 (IRAK4) [nM] | EC50 (Human whole blood) [nM]
CC(C)Nc1c(-c2cc(C3CCOCC3)no2)cnc2c1[nH]c1cc(C#N)ccc12 [Example 77, 4-(isopropylamino)-3-(3-(tetrahydro-2H-pyran-4-yl)isoxazol-5-yl)-5H-pyrido[3,2-b]indole-7-carbonitrile] | 11 | 990
Cc1cc(CNC(=O)c2cnc3c([nH]c4cc(C#N)ccc43)c2NC(C)C)on1 [Example 15, 7-cyano-4-(isopropylamino)-N-((3-methylisoxazol-5-yl)methyl)-5H-pyrido[3,2-b]indole-3-carboxamide] | 16 | 1450
CC(C)CCNC(=O)c1cnc2c([nH]c3cc(C#N)ccc32)c1NC(C)C [Example 21, 7-cyano-N-isopentyl-4-(isopropylamino)-5H-pyrido[3,2-b] indole carboxamide] | 2.1 | 1340
CC(C)Nc1c(C(=O)NCCC2(O)CC(F)(F)C2)cnc2c1[nH]c1cc(C#N)ccc12 [Example 43, 7-cyano-N-(2-(3,3-difluoro-1-hydroxycyclobutyl)ethyl)-4-(isopropylamino)-5H-pyrido[3,2-b]indole-3-carboxamide] | 2.5 | 740
CC(C)Nc1c(-c2cc(C3CCNCC3)no2)cnc2c1[nH]c1cc(C#N)ccc12 [Example 76, 4-(isopropylamino)-3-(3-(piperidin-4-yl)isoxazol-5-yl)-5H-pyrido[3,2-b]indole-7-carbonitrile] | 2.3 | 820
CC(C)Nc1c(C(=O)NCCC(C)(C)F)cnc2c1[nH]c1cc(C#N)ccc12 [Example 38, 7-cyano-N-(3-fluoro-3-methylbutyl)-4-(isopropylamino)-5H-pyrido[3,2-b]indole-3-carboxamide] | 3.1 | 510
CC(C)Nc1c(C(=O)N[C@H]2CC[C@H](O)CC2)cnc2c1[nH]c1cc(C#N)ccc12 [Example 10, 7-cyano-N-((1R,4R)-4-hydroxycyclohexyl)-4-(isopropylamino)-5H-pyrido[3,2-b]indole-3-carboxamide] | 12 | 2890
CC(=O)NC(C)(C)CCNC(=O)c1cnc2c([nH]c3cc(C#N)ccc32)c1NC(C)C [Example 60, N-(3-acetamido-3-methylbutyl)-7-cyano-4-(isopropylamino)-5H-pyrido[3,2-b]indole-3-carboxamide] | 3.8 | > 20000
CC(C)(O)CCNC(=O)c1cnc2c([nH]c3cc(C#N)ccc32)c1NCC(F)(F)F [Example 37, 7-cyano-N-(3-hydroxy-3-methylbutyl)-4-((2,2,2-trifluoroethyl)amino)-5H-pyrido[3,2-b]indole-3-carboxamide] | 14 | –
N#Cc1ccc2c(c1)[nH]c1c(NC3COC3)c(C(=O)NCCC(F)(F)F)cnc12 [Example 42, 7-cyano-4-(oxetanylamino)-N-(3,3,3-trifluoropropyl)-5H-pyrido[3,2-b]indole-3-carboxamide] | 24 | –
CC(C)Nc1c(C(=O)NCC2(CO)CC2)cnc2c1[nH]c1cc(C#N)ccc12 [Example 8, 7-cyano-N-((1-(hydroxymethyl)cyclopropyl)methyl)-4-(isopropylamino)-5H-pyrido[3,2-b]indole-3-carboxamide] | 330 | –
CCNc1c(C(=O)NCCC2CCCNC2)cnc2c1[nH]c1cc(C#N)ccc12 (stereo not shown) [Example 55, 7-cyano-4-(ethylamino)-N-(2-(piperidin-3-yl)ethyl)-5H-pyrido[3,2-b]indole-3-carboxamide] | 2.8 | –
CC(C)Nc1c(C(=O)NCC2(CO)COC2)cnc2c1[nH]c1cc(C#N)ccc12 [Example 7, 7-cyano-N-((3-(hydroxymethyl)oxetan-3-yl)methyl)-4-(isopropylamino)-5H-pyrido[3,2-b]indole-3-carboxamide] | 170 | –
CC(C)Nc1c(C(=O)NC[C@@H](F)C(C)(C)O)cnc2[nH]c3ccc(C#N)cc3c12 [Example 81, (R)-6-cyano-N-(2-fluoro-3-hydroxy-3-methylbutyl)-4-(isopropylamino)-9H-pyrido [2,3-b]indole-3-carboxamide] | 170 | –
